Results from patent US6001849A, “Furopyridine, thienopyridine pyrrolopyridine useful in controlling chemical synaptic transmission” (Abbott Laboratories, priority 1997, dated 1999).
Counter-ions that a name gives are not always drawn. Like-named read-outs stand apart in the source and are kept apart here.

Tests used:
[1] = target: neuronal nicotinic acetylcholine receptors; test: [3H]-cytisine ligand-receptor binding assay (crude synaptic membranes from whole rat brain); details: for binding to the nicotinic acetylcholine receptor (in words): preferred compounds
Description: For the purpose of identifying compounds as nicotinic acetylcholinergic agents which are capable of interacting with neuronal nicotinic acetylcholine receptors in the brain, a ligand-receptor binding assay was carried out as the initial screen. Compounds of the present invention were effective at interacting with neuronal nicotinic acetylcholine receptors as assayed for their ability to displace radioligand from neuronal nicotinic acetylcholine receptors labeled with [^3 H]-cytisine ([^3 H]-CYT).
A. Protocol For Determination of Nicotinic Acetylcholine Receptor Binding Potencies of Ligands
Binding of [^3 H]-CYT to nicotinic acetylcholine receptors was accomplished using crude synaptic membrane preparations from whole rat brain (Pabreza et al., Molecular Pharmacol., 1990, 39:9). Washed membranes were stored at -80° C. prior to use. Frozen aliquots were slowly thawed and resuspended in 20 volumes of buffer (containing: 120 mM NaCl, 5 mM KCl, 2 mM MgCl2, 2 mM CaCl2 and 50 mM Tris-Cl, pH 7.4 @4° C.). After centrifuging at 20,000×g for 15 minutes, the pellets were resuspended in 30 volumes of buffer. Homogenate (containing 125-150 μg protein) was added to triplicate tubes containing concentrations of test compound and [^3 H]-CYT (1.25 nM) in a final volume of 500 μL. Samples were incubated for 60 minutes at 4° C., then rapidly filtered through Whatman GF/B filters presoaked in 0.5% polyethylimine using 3×4 mL of ice-cold buffer. The filters were counted in 4 mL of Ecolume® (ICN). Nonspecific binding was determined in the presence of 10 μM (-)-nicotine and values were expressed as a percentage of total binding.

[2] = target: T1, α4 and β2 nicotinic acetylcholine subunits (K177 cells) (Homo sapiens, UniProt P17787+P43681); test: 86Rb+ efflux assay in K177 cells (HEK 293 stably transfected with α4 and β2 nicotinic acetylcholine subunits); assay type: cell-based
T1 construct: expressed in transfected cells
Description: (§1) B. Protocols for the Determination of Functional Effects of Nicotinic Acetylcholine Receptor Ligands on Synaptic Transmission
Cells of the IMR-32 human neuroblastoma clonal cell line (ATCC, Rockville, Md.) were maintained in a log phase of growth according to established procedures (Lukas, R. J., J. Pharmacol. Exp. Ther., 265: 294-302, 1993). Experimental cells were seeded at a density of 500,000 cells/mL into a 24-well tissue culture dish. Plated cells were allowed to proliferate for at least 48 hours before loading with 2 μCi/mL of ^86 Rb^+ (35 Ci/mmol) overnigh at 37° C. The ^86 Rb^+ efflux assays were performed according to previously published protocols (Lukas, 1993) except serum-free Dulbecco's Modified Eagle's Medium was used during the ^86 Rb^+ loading, rinsing, and agonist-induced efflux steps.
Cells of the K177 cell line, resulting from stable transfection of the human embryonic kidney (HEK) 293 cell line with the cDNA of the α4 and β2 nicotinic acetylcholine subunits (Gopalakrishnan, et al, J. Pharmacol. Expt. Ther. 1996, 276, 289-297), were maintained in a log phase of growth according to established procedures (Gopalakrishnan, et al., loc. cit.). The cells were plated onto poly-lysine coated 24-well Costar plates (Cambridge, Mass.) at a density of 250,000 cells/well. When confluent, the cells were loaded with ^86 Rb^+ and agonist-induced efflux was assessed as reported above for IMR-32 cells.
Maximal responses (reported as percent relative to the response elicited by 100 μM (S)-nicotine) are shown for selected compounds of the invention. The inhibition data (given for other selected compounds) reflect inhibition of the efflux elicited by 100 μM (S)-nicotine at the indicated concentration. […] This finding is in agreement with the results of others who have linked dopamine release, which is dependent upon the ion flux in synaptic transmission, to binding at nicotinic receptors (cf., for example, Lippiello and Caldwell, U.S. Pat. No. 5,242,935, issued Sept. 7, 1993; Caldwell and Lippielo, U.S. Pat. No. 5,248,690, issued Sept. 28, 1993; and Wonnacott et al., Prog. Brain Res; 79: 157-163 (1989)).

[3] = tested on: neuronal nicotinic acetylcholine receptors in IMR-32 cells; test: 86Rb+ efflux assay in IMR-32 neuroblastoma cells; assay type: cell-based, human; details: for IMR-32 % max: maximal response, percent relative to 100 μM (S)-nicotine
Description: as §1
Experimental cells were seeded at a density of 500,000 cells/mL into a 24-well tissue culture dish. Plated cells were allowed to proliferate for at least 48 hours before loading with 2 μCi/mL of ^86 Rb^+ (35 Ci/mmol) overnigh at 37° C.

[4] = Table 1, [3H]-cytisine 1.25 nM, 4° C., 60 min, Ki by Cheng and Prusoff, read-out: [^3 H]-Cyt Binding
[5] = K177, Table 1, maximal response, percent relative to 100 μM (S)-nicotine, read-out: K177 % max
[6] = Table 1, inhibition of efflux elicited by 100 μM (S)-nicotine
[7] = K177, Table 1, inhibition of efflux elicited by 100 μM (S)-nicotine, 10 μM, read-out: K177 % Inhibition @ 10 μM

T1 sequence (P43681 29-627 limits assumed): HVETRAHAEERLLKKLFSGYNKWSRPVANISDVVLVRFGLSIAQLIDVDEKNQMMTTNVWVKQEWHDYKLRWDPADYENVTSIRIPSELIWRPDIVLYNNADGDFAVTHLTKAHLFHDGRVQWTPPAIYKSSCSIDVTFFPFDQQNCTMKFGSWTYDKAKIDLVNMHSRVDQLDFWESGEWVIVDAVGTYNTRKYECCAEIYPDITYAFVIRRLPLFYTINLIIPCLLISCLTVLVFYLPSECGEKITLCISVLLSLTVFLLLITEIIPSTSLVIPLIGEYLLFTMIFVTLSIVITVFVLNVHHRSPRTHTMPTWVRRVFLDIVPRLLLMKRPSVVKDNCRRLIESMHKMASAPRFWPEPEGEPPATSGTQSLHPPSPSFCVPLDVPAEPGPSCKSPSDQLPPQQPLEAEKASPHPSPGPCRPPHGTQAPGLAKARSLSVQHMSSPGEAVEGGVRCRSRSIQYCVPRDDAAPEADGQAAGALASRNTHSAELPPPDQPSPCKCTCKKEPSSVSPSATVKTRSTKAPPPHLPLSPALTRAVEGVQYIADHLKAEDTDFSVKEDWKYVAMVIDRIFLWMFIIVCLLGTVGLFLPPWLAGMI
T1 sequence (P17787 26-502): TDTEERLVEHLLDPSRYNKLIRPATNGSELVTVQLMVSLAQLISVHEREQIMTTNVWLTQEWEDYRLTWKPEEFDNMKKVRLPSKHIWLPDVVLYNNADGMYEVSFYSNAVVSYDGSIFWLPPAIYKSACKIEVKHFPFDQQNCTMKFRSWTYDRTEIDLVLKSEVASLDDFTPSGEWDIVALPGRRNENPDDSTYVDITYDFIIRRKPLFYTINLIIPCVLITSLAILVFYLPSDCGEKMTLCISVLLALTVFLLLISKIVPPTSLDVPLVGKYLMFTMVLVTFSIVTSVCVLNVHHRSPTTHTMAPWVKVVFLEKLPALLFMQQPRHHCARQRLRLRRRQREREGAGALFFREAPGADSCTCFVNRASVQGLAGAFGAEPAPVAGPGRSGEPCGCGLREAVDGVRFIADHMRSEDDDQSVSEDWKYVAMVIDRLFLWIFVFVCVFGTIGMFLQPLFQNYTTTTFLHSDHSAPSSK

Compound	Ki [1, 4] [nM]	Emax [2, 5] [%]	IMR-32 % Inhibition @ 10 μM [3, 6] [%]	IMR-32 % max ([3]; Table 1) [%]	further results
Brc1ccc2oc([C@@H]3CCCN3)cc2n1.Cl [Example 28, 5-bromo-2-(2-(S)-parrolidinvy)-furo[3,2-b]pyridine hydrochloride]	4.8				K177 % max ([2]; Table 1, maximal response, percent relative to 100 μM (S)-nicotine): 20%
Cc1ccc2oc(C34CCCN3CCC4)cc2n1 [Example 16, 2-(Hexahydro-1H-7a-pyrrolizinyl)-5-methylfuro[3,2-b]pyridinedihydrochloride]	5.8	109	10	0	
Cl.Cl.c1cnc2cc([C@@H]3CCCN3)oc2c1 [Example 2, 2-(2-(S)-pyrrolidinyl)furo[3,2-b]pyridine dihydrochloride]	76	0	24		
Brc1ccc2oc([C@H]3CCCN3)cc2n1 [Example 33, 5-bromo-2-(2-(R)-pyrrolidinyl)-furo[3,2-b]pyridine hydrochloride]		0	8	0	
c1cnc2cc([C@H]3C[C@@H]4CC[C@H]3N4)oc2c1 (relative stereo) [Example 52, (±)-2-(7-aza-2-exo-bicyclo[2.2.1]heptyl)furo[3,2-b]pyridine dihydrochloride]	0.86	36		69	
Clc1ccc2oc([C@H]3CCCN3)cc2n1 [Example 35, 5-chloro-2-(2-(R)-pyrrolidinyl)-furo[3,2-b]pyridine hydrochloride]	1.1	61			
Clc1cnc2cc([C@H]3CCCN3)oc2c1 [Example 31, 6-chloro-2-(2-(R)-pyrrolidinyl)-furo[3,2-b]pyridine hydrochloride]	9.8	13			inhibition at 10 µM [2, 7]: 41%
Cc1ccc2oc([C@H]3CCCN3)cc2n1.Cl [Example 29, 5-methyl-2-(2-(R)-pyrrolidinyl)-furo[3,2-b]pyridine hydrochloride]	6.8	0	0		inhibition at 10 µM [2, 7]: 28%
CN1CCC[C@H]1c1cc2ncccc2o1.Cl.Cl [Example 1, 2-(1-methyl-2-(S)-pyrrolidinyl)furo[3,2-b]pyridine dihydrochloride]	2.7	79		7	IMR-32 % Inhibition @ (30 μM) ([3]; Table 1, inhibition of efflux elicited by 100 μM (S)-nicotine, 30 μM): 16%
CN1CCC[C@@H]1c1cc2ncccc2o1 [Example 4, 2-(1-methyl-2-(R)-pyrrolidinyl)furo[3,2-b]pyridine dihydrochloride]	17.5	63			
Cl.Clc1cc2oc(C34CCCN3CCC4)cc2nc1Cl [Example 38, 2-(Hexahydro-1H-7a-pyrrolizinyl)-5,6-dichlorofuro[3,2-b]pyridine hydrochloride]	0.33	0	10	12	
Cc1ccc2oc([C@@H]3CCCN3C)cc2n1.Cl.Cl [Example 6, 2-(1-methyl-2-(S)-pyrrolidinyl)-5-methylfuro[3,2-b]pyridine dihydrochloride]	4.7	68	4		
Cl.Cl.c1cnc2cc([C@H]3CCCN3)oc2c1 [Example 3, 2-(2-(R)-pyrrolidinyl)furo[3,2-b]pyridine dihydrochloride]	4.1	34		58	
CN1CCC[C@H]1c1cc2nc(Cl)ccc2o1 [Example 12, 5-chloro-2-(1-methyl-2-(S)-pyrrolidinyl)-furo[3,2-b]pyridinehydrochloride]	4.1	41		11	
Cl.Clc1cc2oc([C@H]3CCCN3)cc2nc1Cl [Example 39, 5,6-Dichloro-2-(2-(R)-pyrrolidinyl)furo[3,2-b]pyridine hydrochloride]	1.1	39	25	4	
Cl.c1cnc2cc(C34CCCN3CCC4)oc2c1 [Example 15, 2-(Hexahydro-1H-7a-pyrrolizinyl)furo[3,2-b]pyridine hydrochloride]	0.45	9		43	binding to the nicotinic acetylcholine receptor (in words) [1]: most potent binders
CN1CCC[C@H]1c1cc2nc(Cl)c(Br)cc2o1.Cl.Cl [Example 48, 6-bromo-5-chloro-2-(1-methyl-2-(S)-pyrrolidinyl)furo[3,2-b]pyridine dihydrochloride]	1.3	0	0	6	
c1cnc2cc(C34CCCN3CCC4)sc2c1 [Example 24, 2-(Hexahydro-1H-7a-pyrrolizinyl)thieno[3,2-b]pyridine hydrochloride]	2	14			inhibition at 10 µM [2, 7]: 60%
CN1CCC[C@H]1c1cc2nc(Cl)c(Cl)cc2o1.Cl [Example 26, 5,6-Dichloro-2-(1-methyl-2-(S)-pyrrolidinyl)furo[3,2-b]pyridine hydrochloride]	0.66	6	38	7	binding to the nicotinic acetylcholine receptor (in words) [1]: most potent binders; inhibition at 10 µM [2, 7]: 53%
CN1CCC[C@H]1c1cc2ncc(Cl)cc2o1 [Example 8, 6-chloro-2-(1-methyl-2-(S)-pyrrolidinyl)-furo[3,2-b]pyridinedihydrochloride]	27		9	0	inhibition at 10 µM ([2]; K177, read-out: K177 % Inhibition @ 10 μM): 45%; Emax ([2]; K177, read-out: K177 % max): 3%
Clc1nc2cc([C@H]3CCCN3)oc2cc1-c1ccccc1 [Example 55, 2-(2-(R)-pyrrolidinyl)-5-chloro-6-phenyl furo[3,2-b]pyridinehydrochloride]					Ki ([1]; Table 2, [3H]-cytisine binding, read-out: Binding): 0.16 nM; in vitro binding (in words) ([1]; Tables 1 and 2): potent in vitro binding; binding to the nicotinic acetylcholine receptor (in words) [1]: most potent binders; IMR-32 % max ([3]; Table 2): 32%
CN1[C@@H]2CC[C@@H](C2)[C@H]1c1cc2ncccc2o1 [Example 42, 2-((1R,4S)-2-aza-3-(S)-bicyclo[2.2.1]heptyl)-2-methylfuro[3,2-b]pyridil dihydrochloride]	4.7	29		24	
